How the values were obtained:
[1] = Carfilzomib liposome entrapment by remote loading from precipitate (drug and lipid by HPLC after purification); type: physicochemical
Description: Ammonium sulfate solution was prepared by dissolving ammonium sulfate solid to a final concentration of 250 mM (500 mequivilents of anion/L) no pH adjustment was made to yield a final pH of 5.6. Sodium sulfate solution (250 mM) was prepared by adding 0.35 g sodium sulfate to 10 mL deionized water.
The liposomes were formed by extrusion. Lipids were dissolved in ethanol at a concentration of 500 mM HSPC (591 mg/mL total lipid) at 65° C. and the 9 volumes of the trapping agent solution heated to 65° C. was added to the ethanol/lipid solution also at 65° C. The mixture was vortexed and transferred to a 10 mL thermostatically controlled (65° C.) Lipex Extruder. The liposomes were formed by extruding 10 times through polycarbonate membranes having 0.1 um pores. After extrusion the liposomes were cooled on ice. The transmembrane electrochemical gradient was formed by purification of the liposomes by dialysis in dialysis tubing having a molecular weight cut off of 12,000-14,000. […] The conductivity of the liposome solution was measured and was indistinguishable from the dialysis medium ˜40 μS/cm.
The lipid concentration is determined by measuring the cholesterol by HPLC using an Agilent 1100 HPLC with and Agilent Zorbax 5 um, […], Eclipse XDB-C8 column and a mobile phase of A=0.1% TFA, B=0.1% TFA/MeOH with an isocratic elution of 99% B. The flow rate is 1.0 mL/min, column temperature is 50° C., 10 μL injection and detection by absorbance at 205 nm. […] The liposome size is measured by dynamic light scattering.
Carfilzomib (Selleck Chemicals) was dissolved in DMSO at a concentration of 10 mg/mL. […] The supernatants were purified on a Sephadex G25 column collected and analyzed by HPLC. […] The mobile phase consists of A=0.1% TFA, B=0.1% TFA/MeOH with a gradient elution starting at 50% B and increasing to 83% B in 13 min with 7 min equilibration back to 50% B. The flow rate is 1.0 mL/min, column temperature is 30 C, 10 μl injection and detection by absorbance at 205 nm. […] The lipid concentration is determined by analysis of the cholesterol by HPLC. […]

[2] = Drug precipitate loading followed by light scattering at 600 nm; type: physicochemical
Description: Liposomes containing 250 mM ammonium sulfate as trapping agent and 250 mM sodium sulfate as control liposomes which would not remote load drug. The liposomes were prepared and loaded using the procedure described in Example 1 except a disposable polystyrene cuvette was used as the reaction vessel. The scattering of light at 600 nm was measured with a UV/vis spectrophotometer during the loading process.

[3] = Carfilzomib solubility as a function of DMSO content (optical density at 600 nm); type: physicochemical; settings: 0.2 mg/mL
Description: Carfilzomib was added from a stock 10 mg/mL solution in DMSO to 1 mL of a citric acid/DMSO mixture so that the composition of DMSO was 2%, 25%, 50%, 75% and 100%. The final drug concentration was 0.2 mg/mL. The solutions were prepared and measured for optical density at 600 nm. The optical density at 600 nm is a good measure of how turbid or how much scattering material (such as drug precipitates) are in a solution, generally, the more precipitates the higher the absorbance. From FIG. 8 is apparent that at DMSO concentrations below 50% vol/vol (25° C.) and 25% vol/vol (65° C.) the drug remains in a precipitated form. Only when the concentration of DMSO is increased does it become effectively solubilized at this concentration of 0.2 mg/mL.

[4] = elimination in the blood stream, unencapsulated drug; cited from earlier work
[5] = Reverse gradient-directed drug release from liposomes; type: physicochemical
Description: Liposomes were loaded with carfilzomib as described in Example 1 and were purified into deionized water. The sample was divided into two aliquots. To the first aliquot, concentrated Hepes pH 7.4 and NaCl was added so that the final concentration was 5 mM Hepes, 145 mM NaCl (HBS). To the second aliquot, concentrated ammonium sulfate was added so that the final concentration was 250 mM. No obvious physical changes were initially observed. The samples were then heated at 65° C. for 30 min. The samples were transferred to clean eppendorf tubes and centrifuged for 10,000 rpm for 5 min after which the supernatants and precipitates were separated and tested for carfilzomib content by HPLC assay. Released drug precipitated, liposome encapsulated drug remained in the supernatant. The % carfilzomib released was calculated by […]

[6] = Remote loading of taxane derivative precipitates into liposomes; type: physicochemical
Description: Liposomes were prepared using the extrusion and purification method described in Example 1. The lipid composition was POPC/cholesterol (3/0.5, mol/mol). The trapping agent consisted of zinc acetate or magnesium acetate at 120 mM. A solution of either unmodify carbazitaxel or 2′succinylcarbazitaxel in DMSO at 20 mg/mL was added to the liposome solution slowly over 30 seconds while vortexing to produce a drug precipitate in the liposome solution. The target drug to phospholipid ratio was 100 g/mole lipid for unmodified carbazitaxel and 100, 150 or 200 g for succinylcarbazitaxel/mol phospholipid. The solutions are heated for 30 min at 45° C. and then cooled on ice. A sample was removed to determine the input drug to lipid ratio and the remaining solution was spun in a centrifuge at 12,000 RPM for 5 minutes to pellet any unloaded drug. The supernatant was further purified from unloaded drug using a Sephadex G25 size exclusion column eluted with 5 mM HEPES, 145 mM NaCl at pH 6.5. The purified liposomes were analyzed for drug and lipid content by HPLC as described in Example 16.
To encapsulate the 2′ morpholine-4-ylethyl amide of succinylcabazitaxel, liposomes were prepared with a lipid composition of HSPC/DSPG/Chol/PEG-DSPE in the ratio 2/0.6/2/0.3 containing 1.0 M (SO4) TEA dextran sulfate. The liposomes were separated form the non-entrapped TEA dextran sulfate by anion exchange and then by dialysis against 5 mM Hepes buffered 10% (wt/wt) sucrose, pH 6.5. 2′ morpholine-4-ylethyl amide of succinylcabazitaxel was dissolved in DMSO at 10 mg/mL.
In a typical preparation, the DMSO 2′ morpholine-4-ylethyl amide of succinylcabazitaxel solution was added dropwise to the liposomes at room temperature while the liposomes suspension was rapidly mixed on a vortex mixer. […] The purified liposomes were analyzed for drug and lipid content by HPLC as described in Example 16. […]

[7] = Remote loading of amphotericin B precipitate into TEA dextran sulfate liposomes; type: physicochemical
Description: Liposomes were prepared with a lipid composition of HSPC/DSPG/Chol/PEG-DSPE in the ratio 2/0.6/2/0.3 containing 1.0 M (SO4) TEA dextran sulfate. The liposomes were separated form the non-entrapped TEA dextran sulfate by anion exchange and then by dialysis against 5 mM Hepes buffered 10% (wt/wt) sucrose pH 6.5. The liposomes were exchanged into 0.01 N HCL, 10% sucrose pH 2.0 before drug loading. Amphotericin B was dissolved in DMSO at 10 mg/ml.
In a typical preparation, the DMSO amphotericin B solution was added dropwise to the liposomes at room temperature while the liposomes suspension was rapidly mixed on a vortex mixer. The concentration of the liposomal lipid was 5 umol (phospholipid)/mL and 0.1 mL of the amphotericin B solution was added per mL of liposomes so that the final amphotericin B concentration was about 1.0 mg/ml AmB and the final DMSO concentration was about 10% (V/V). By adjusting the amount of liposomes in the preparation various AmB/PL ratios were tested, e.g., 200, 400, 800 g/mol.
The samples were heated at 65° C. for 15 min. Then cooled on ice for 30 minutes. The preparation was then passed through a PD10 (Sephadex G25) gel filtration column to remove any precipitated amphotericin B that was not incorporated into the liposome. […] The diameter of the drug loaded liposomes was not changed at the 200 and 400 g drug/mole lipid input ratio and were slighted larger circa 10% in the 800 g drug lipid ratio. The purified liposomes were analyzed for drug and lipid content by the HPLC method as described in Example 1.

Question: For CC(C)C[C@H](NC(=O)[C@H](CCc1ccccc1)NC(=O)CN1CCOCC1)C(=O)N[C@@H](Cc1ccccc1)C(=O)N[C@@H](CC(C)C)C(=O)[C@@]1(C)CO1 [carfilzomib], which “loading capacity of remote loaded liposomes relative to sodium sulfate liposomes” value ([1]; ammonium sulfate vs sodium sulfate liposomes) is on record?
Answer: Its value is greater than 3 fold.

Question: What about the “impact of delay between precipitate formation and loading on loading efficiency” value ([1]; delay up to 12 h) of the same molecule?
Answer: The value was “does not have a significant impact”.

Question: And the greatest payload ([1]; triethylammonium sulfate gradient (500 mM), input 650 g drug/mol HSPC, 30 min, 10% DMSO)?
Answer: Its greatest payload is 440±12.6 g drug/mol HSPC.

Question: And the “time to clarification of the solution during loading” value ([2]; ammonium sulfate liposomes)?
Answer: The value was no more than 15 min.

Question: And the “clarification of the precipitate during loading” value ([2]; sodium sulfate liposomes)?
Answer: The value was “do not show any clarification”.

Question: What about the “DMSO concentration at which the drug remains in a precipitated form” value ([3]; 25 C) of the same molecule?
Answer: The value was “below 50 % vol/vol”.

Question: And the “DMSO concentration at which the drug remains in a precipitated form” value ([3]; 65 C)?
Answer: Its value is less than 25 % vol/vol.

Question: And the t1/2 [4]?
Answer: Its t1/2 is less than 20 min.

Question: What about the “drug released with reverse gradient relative to control with no reverse gradient” value [5] of the same molecule?
Answer: Its value is 6.5 fold.

Question: And the “degradation of released drug (HPLC chromatogram vs starting material)” value ([5]; after loading and reverse gradient release)?
Answer: Its value is “no degradation”.

Question: With CO[C@H]1C(=O)[C@]2(C)[C@@H](OC)C[C@H]3OC[C@@]3(OC(C)=O)[C@H]2[C@H](OC(=O)c2ccccc2)[C@]2(O)C[C@H](OC(=O)[C@H](OC(=O)CCC(=O)O)[C@@H](NC(=O)OC(C)(C)C)c3ccccc3)C(C)=C1C2(C)C [2′ succinylcabazitaxel, 2′-succinylcarbazitaxel] as the molecule, how does the loading efficacy ([6]; POPC/cholesterol liposomes with zinc acetate or magnesium acetate 120 mM, 45 C 30 min) read?
Answer: Its loading efficacy is “greater than 85%”.

Question: For C[C@@H]1[C@H](O)[C@@H](C)/C=C/C=C/C=C/C=C/C=C/C=C/C=C/[C@H](O[C@@H]2O[C@H](C)[C@@H](O)[C@H](N)[C@@H]2O)C[C@@H]2O[C@](O)(C[C@@H](O)C[C@@H](O)[C@H](O)CC[C@@H](O)C[C@@H](O)CC(=O)O[C@H]1C)C[C@H](O)[C@H]2C(=O)O [Amphotericin B], which “amphotericin B concentration to which final liposome preparation was readily concentrated” value ([7]; 5 mM Hepes, 144 mM NaCl, pH 7.4 buffer) is on record?
Answer: The value was 10 mg/mL.

Question: And the “diameter of the drug loaded liposomes” value ([7]; 200 and 400 g drug/mole lipid input ratio)?
Answer: The value was “not changed”.

Question: And the “increase of diameter of the drug loaded liposomes” value ([7]; 800 g drug lipid ratio)?
Answer: Its value is “circa 10%”.

Question: And the remote loading efficiency ([7]; input 200 g drug/mole lipid)?
Answer: Its remote loading efficiency is 96%.

Question: And the “drug content of purified preparation” value ([7]; input 400 g drug/mole of lipid)?
Answer: The value was 360 g amphotericin B/mole lipid.

Question: What about the encapsulated ([7]; input 400 g drug/mole of lipid) of the same molecule?
Answer: The encapsulated was “about 90%”.

Question: And the “drug content of purified preparation” value ([7]; input 800 g drug/mole lipid)?
Answer: The value was 560 g amphotericin B/mole lipid.

Question: And the encapsulated ([7]; input 800 g drug/mole lipid)?
Answer: Its encapsulated is “about 70%”.

Question: For CO[C@H]1C(=O)[C@]2(C)[C@@H](OC)C[C@H]3OC[C@@]3(OC(C)=O)[C@H]2[C@H](OC(=O)c2ccccc2)[C@]2(O)C[C@H](OC(=O)[C@H](O)[C@@H](NC(=O)OC(C)(C)C)c3ccccc3)C(C)=C1C2(C)C [cabazitaxel], which efficiency of loading ([6]; 100 g carbazitaxel/mol phospholipid, calcium acetate and magnesium acetate liposomes (so in the source)) is on record?
Answer: The efficiency of loading was “very low”.

Question: What about the “encapsulation, % of the added drug” value ([6]; TEA-dextran sulfate liposomes) of the same molecule?
Answer: The value was less than 5%.
